Measured values as given in patent publication US10399978B2, “Imidazopyridine thioglycolic acid derivatives as potent inhibitors of human urate transporter 1” (SHANDONG UNIVERSITY, priority 2016, dated 2019).
Values belong to the molecule of their own block, whether it stands above or below them.

Experiments:
[1] = system: mice with acute hyperuricemia; experiment: In vivo activity of reducing serum uric acid (acute hyperuricemia induced with xanthine and potassium oxonate); set-up: species or system Kunming mice; details: for BUA (blood uric acid concentration): hyperuricemic Kunming mice; for anti-gout activity, compared with positive control benzbromarone: batch 1, conclusion from Table 2
Description: All newly synthesized target compounds were primarily evaluated for their activities of reducing blood uric acid in vivo (mice). Benzbromarone and lesinurad were selected as positive control drugs.
Example 46. In Vivo Activity of Reducing Serum Uric Acid
• (1) Experimental animal: Kunming mice, provided by Experimental Animal Center of Shandong University • (2) Preparation of compounds: Compounds were dissolved in ethanol and CMC-Na. • (3) Modeling drugs: Xanthine and potassium oxonate • (4) Reference drugs: Benzbromarone and Lesinurad • (5) Test method: The model group consisted of mice with acute hyperuricemia induced with 0.2 mL xanthine intragastric injection and 0.2 mL potassium oxonate subcutaneous injection, and not treated with test compound.

[2] = batch 2, Model 576.5 ± 120.5, Blank 262 ± 43.6, Blank (CMC-Na) 286 ± 90.9
[3] = batch 1, Model 1462.6 ± 194.3, Blank 377.2 ± 27.6

SMILES: CCOC(=O)CCCSc1nc2ncccc2n1-c1ccc(C2CC2)c2ccccc12 [Compound T2]
BUA (blood uric acid concentration) [1, 2]: 334 ± 65.7 µM

SMILES: CCOC(=O)CCCSc1nc2cccnc2n1-c1ccc(C2CC2)c2ccccc12 [Compound Q2]
BUA (blood uric acid concentration) [1, 3]: 1422.6 ± 194.4 µM

SMILES: O=C(O)CCCSc1nc2cccnc2n1-c1cccc2ccccc12 [Compound M6]
BUA (blood uric acid concentration) [1, 3]: 1342 ± 144.3 µM

SMILES: O=C(O)CSc1nnc(Br)n1-c1ccc(C2CC2)c2ccccc12 [RDEA594, Lesinurad, reference compound]
BUA (blood uric acid concentration) [1, 2]: 409.5 ± 124.3 µM

SMILES: CCOC(=O)C(C)(C)Sc1nc2cccnc2n1-c1c(C)cc(C)cc1C [Compound X4]
anti-gout activity, compared with positive control benzbromarone [1]: significant anti-gout activity
BUA (blood uric acid concentration) [1, 3]: 689.2 ± 53.4 µM

SMILES: O=C(O)CCCSc1nc2cccnc2n1-c1ccc(C2CC2)c2ccccc12 [Compound Q6]
BUA (blood uric acid concentration) [1, 3]: 1490.7 ± 269.9 µM

SMILES: CCOC(=O)C(C)(C)Sc1nc2cccnc2n1-c1ccc(C2CC2)c2ccccc12 [Compound Q4]
BUA (blood uric acid concentration) [1, 3]: 1328.2 ± 163.8 µM

SMILES: CCc1oc2ccccc2c1C(=O)c1cc(Br)c(O)c(Br)c1 [Benzbromarone, reference compound]
BUA (blood uric acid concentration) [1, 3]: 762.5 ± 30.3 µM

SMILES: O=C(O)CCCSc1nc2ncccc2n1-c1ccc(C2CC2)c2ccccc12 [Compound T6]
BUA (blood uric acid concentration) [1, 2]: 330 ± 29.1 µM

SMILES: CCOC(=O)C(C)Sc1nc2cccnc2n1-c1cccc2ccccc12 (centres unmarked) [Compound M3]
BUA (blood uric acid concentration) [1, 3]: 1321.5 ± 183.5 µM

SMILES: CCOC(=O)CCCSc1nc2cccnc2n1-c1cccc2ccccc12 [Compound M2]
anti-gout activity, compared with positive control benzbromarone [1]: significant anti-gout activity
BUA (blood uric acid concentration) [1, 3]: 634.7 ± 97.7 µM

SMILES: CCOC(=O)C(C)(C)Sc1nc2ncccc2n1-c1ccc(C2CC2)c2ccccc12 [Compound T4]
BUA (blood uric acid concentration) [1, 2]: 306 ± 46.8 µM

SMILES: Cc1cc(C)c(-n2c(SCCCC(=O)O)nc3cccnc32)c(C)c1 [Compound X6]
anti-gout activity, compared with positive control benzbromarone [1]: significant anti-gout activity
BUA (blood uric acid concentration) [1, 3]: 655.2 ± 210.8 µM

SMILES: CC(C)(Sc1nc2cccnc2n1-c1ccc(C2CC2)c2ccccc12)C(=O)O [Compound Q8]
BUA (blood uric acid concentration) [1, 3]: 1448 ± 216.7 µM

SMILES: CCOC(=O)C(C)(C)Sc1nc2cccnc2n1-c1cccc2ccccc12 [Compound M4]
BUA (blood uric acid concentration) [1, 3]: 1363 ± 184.7 µM

SMILES: CC(Sc1nc2ncccc2n1-c1ccc(C2CC2)c2ccccc12)C(=O)O (centres unmarked) [Compound T7]
BUA (blood uric acid concentration) [1, 2]: 189.7 ± 67.8 µM

SMILES: CC(C)(Sc1nc2ncccc2n1-c1ccc(C2CC2)c2ccccc12)C(=O)O [Compound T8]
BUA (blood uric acid concentration) [1, 2]: 295.2 ± 54 µM

SMILES: CCOC(=O)CSc1nc2ncccc2n1-c1ccc(C2CC2)c2ccccc12 [Compound T1]
BUA (blood uric acid concentration) [1, 2]: 353.5 ± 35.6 µM

SMILES: CCOC(=O)C(C)Sc1nc2cccnc2n1-c1ccc(C2CC2)c2ccccc12 (centres unmarked) [Compound Q3]
anti-gout activity, compared with positive control benzbromarone [1]: significant anti-gout activity
BUA (blood uric acid concentration) [1, 3]: 672 ± 76.2 µM

SMILES: CCOC(=O)CSc1nc2cccnc2n1-c1c(C)cc(C)cc1C [Compound X1]
BUA (blood uric acid concentration) [1, 3]: 1255.2 ± 184 µM

SMILES: CC(Sc1nc2cccnc2n1-c1cccc2ccccc12)C(=O)O (centres unmarked) [Compound M7]
BUA (blood uric acid concentration) [1, 3]: 1307.2 ± 133.1 µM

SMILES: O=C(O)CSc1nc2ncccc2n1-c1ccc(C2CC2)c2ccccc12 [Compound T5]
BUA (blood uric acid concentration) [1, 2]: 342 ± 44.1 µM

SMILES: Cc1cc(C)c(-n2c(SC(C)(C)C(=O)O)nc3cccnc32)c(C)c1 [Compound X8]
BUA (blood uric acid concentration) [1, 3]: 1288 ± 211.5 µM

SMILES: CCOC(=O)CCCSc1nc2cccnc2n1-c1c(C)cc(C)cc1C [Compound X2]
BUA (blood uric acid concentration) [1, 3]: 1107.7 ± 195.1 µM

melting point: 129 to 130 °C
SMILES: O=C(O)CSc1nc2cccnc2n1-c1cccc2ccccc12 [Compound M5]
BUA (blood uric acid concentration) [1, 3]: 1307.5 ± 195.3 µM

SMILES: Cc1cc(C)c(-n2c(SCC(=O)O)nc3cccnc32)c(C)c1 [Compound X5]
BUA (blood uric acid concentration) [1, 3]: 1310.2 ± 155.8 µM

SMILES: CC(Sc1nc2cccnc2n1-c1ccc(C2CC2)c2ccccc12)C(=O)O (centres unmarked) [Compound Q7]
BUA (blood uric acid concentration) [1, 3]: 763.2 ± 248.7 µM

SMILES: CCOC(=O)C(C)Sc1nc2ncccc2n1-c1ccc(C2CC2)c2ccccc12 (centres unmarked) [Compound T3]
BUA (blood uric acid concentration) [1, 2]: 339 ± 29.8 µM

SMILES: CCOC(=O)CSc1nc2cccnc2n1-c1ccc(C2CC2)c2ccccc12 [Compound Q1]
BUA (blood uric acid concentration) [1, 3]: 1344.75 ± 287.5 µM

SMILES: CC(C)(Sc1nc2cccnc2n1-c1cccc2ccccc12)C(=O)O [Compound M8]
BUA (blood uric acid concentration) [1, 3]: 1229 ± 150.2 µM

melting point: 116.5 to 117 °C
SMILES: CCOC(=O)CSc1nc2cccnc2n1-c1cccc2ccccc12 [Compound M1]
BUA (blood uric acid concentration) [1, 3]: 1507.6 ± 229.2 µM

SMILES: O=C(O)CSc1nc2cccnc2n1-c1ccc(C2CC2)c2ccccc12 [Compound Q5]
BUA (blood uric acid concentration) [1, 3]: 824 ± 109.9 µM

SMILES: CCOC(=O)C(C)Sc1nc2cccnc2n1-c1c(C)cc(C)cc1C (centres unmarked) [Compound X3]
BUA (blood uric acid concentration) [1, 3]: 983.2 ± 122.6 µM

SMILES: Cc1cc(C)c(-n2c(SC(C)C(=O)O)nc3cccnc32)c(C)c1 (centres unmarked) [Compound X7]
anti-gout activity, compared with positive control benzbromarone [1]: significant anti-gout activity
BUA (blood uric acid concentration) [1, 3]: 727.2 ± 150.7 µM
